# Values of other authors as cited in paper PMC6444188, “Systemic Administration of Avian Defensin 7: Distribution, Cellular Target, and Antibacterial Potential in Mice” (Frontiers in Microbiology, 2019).
# Ends that are not written are not given here.
# What was measured:
# S. Typhimurium = test system: S. Typhimurium
# Source text: The ability of AvBD7 to reduce bacterial load in the liver of Salmonella-infected animals is in agreement with the distribution of this defensin to this organ. Indeed, even if most part of the fluorescence-labeled AvBD7 injected in the peritoneal cavity of mice reached bloodstream, kidneys and was eliminated through the urinary tract, a substantial amount was found in the liver, the second most fluorescent organ after the kidneys.
# S. Typhi = conditions: intraperitoneal mouse model of salmonellosis; ref Maiti et al., 2014
# Source text: There is a lack of knowledge on the ability of defensins to exert antimicrobial activity toward MDR bacterial strains. […] There are several mouse salmonellosis models available to assess vaccine and antimicrobials efficacy ([Higginson et al., 2016]). These range from models of colonization or lethality, through infection by the oral, ...
# proteases = test system: proteases
# Source text: AvBDs are characterized by cationicity and structure with the typical beta-sheet stabilized by three disulfide bonds between six highly conserved cysteines while primary sequences are diverse ([Derache et al., 2012]).
# [1] = 30 mg/kg i.p., S. Typhimurium-infected mice, ref Benincasa et al., 2010
substance,measurement,setting,value
"Bac7: proline-rich antimicrobial peptide (RRIRPRPPRLPRPRPRPLPFPRPGPRPIPRPLPFP; Bac7; UniProt P19661 131-165, looked up, fragment)",effect on liver bacterial load,S. Typhimurium; [1],without significant reduction of the liver bacterial load
same,effect on mice survival,S. Typhimurium; [1],beneficial effect on mice survival
same,time to elimination following i.p. injection,"S. Typhimurium; mouse, in vivo, ip",≤ 5 h
"HBD1: human beta-defensin (DHYNCVSSGGQCLYSACPIFTKIQGTCYRGKAKCCK; ends and bridges not checked; cysteine pairing not given here; UniProt P60022 33-68, looked up)",effect on disease and bacterial load,S. Typhi,efficient in attenuating the disease and the bacterial load
"HBD3: human beta-defensin (GIINTLQKYYCRVRGGRCAVLSCLPKEEQIGKCSTRGRKCCRRKK; ends and bridges not checked; cysteine pairing not given here; UniProt P81534 23-67, looked up)",stability toward proteases,proteases,can be inactivated by proteases
